Results from patent US12121524B2, “DNA-PK inhibitors” (VERTEX PHARMACEUTICALS INCORPORATED, priority 2018, dated 2024).

Target: DNA-PK (Homo sapiens, UniProt P78527)
Assay: DNA-PK inhibition assay (standard radiometric 33P-ATP kinase assay)
Type: biochemical
Details: 100 μM ATP, approx. 6 nM DNA-PK
Procedure: Compounds were screened for their ability to inhibit DNA-PK kinase using a standard radiometric assay. Briefly, in this kinase assay the transfer of the terminal ^33P-phosphate in ^33P-ATP to a peptide substrate is interrogated. The assay was carried out in 384-well plates to a final volume of 50 μL per well containing approximately 6 nM DNA-PK, 50 mM HEPES (pH 7.5), 10 mM MgCl2, 25 mM NaCl, 0.01% BSA, 1 mM DTT, 10 μg/mL sheared double-stranded DNA (obtained from Sigma), 0.8 mg/mL DNA-PK peptide (Glu-Pro-Pro-Leu-Ser-Gln-Glu-Ala-Phe-Ala-Asp-Leu-Trp-Lys-Lys-Lys, obtained from American Peptide), and 100 μM ATP.
Accordingly, compounds of the invention were dissolved in DMSO to make 10 mM initial stock solutions. Serial dilutions in DMSO were then made to obtain the final solutions for the assay. A 0.75 μL aliquot of DMSO or inhibitor in DMSO was added to each well, followed by the addition of ATP substrate solution containing ^33P-ATP (obtained from Perkin Elmer). The reaction was started by the addition of DNA-PK, peptide and ds-DNA. After 45 min, the reaction was quenched with 25 μL of 5% phosphoric acid. The reaction mixture was transferred to MultiScreen HTS 384-well PH plates (obtained from Millipore), allowed to bind for one hour, and washed three times with 1% phosphoric acid. Following the addition of 50 μL of Ultima Gold™ high efficiency scintillant (obtained from Perkin Elmer), the samples were counted in a Packard TopCount NXT Microplate Scintillation and Luminescence Counter (Packard BioScience). The Ki values were calculated using Microsoft Excel Solver macros to fit the data to the kinetic model for competitive tight-binding inhibition.

Row | Ki [nM] | SMILES
1 | < 100 | CCCCc1cnc2cc(N3CCOCC3)cc(O[C@H]3CC[C@@H](Nc4ncc(Br)cn4)CC3)c2n1 [Compound 64]
2 | < 100 | N#Cc1ccc(N[C@H]2CC[C@@H](Oc3cc(N4CCOCC4)cc4nccnc34)CC2)nc1 [Compound 59]
3 | < 100 | COC(=O)c1cc(N[C@H]2CC[C@@H](Oc3cc(N4CCOCC4)cc4nccnc34)CC2)ncc1OC(C)(C)C [Compound 407]
4 | < 100 | CN(C)C(=O)c1ccc(N[C@H]2CC[C@@H](Oc3cc(N4CCOCC4)cc4nccnc34)CC2)nc1 [Compound 145]
5 | < 100 | O=C(N[C@H]1CC[C@@H](Oc2cc(N3CCOCC3)cc3nccnc23)CC1)C1CC1 [Compound 61]
6 | < 100 | Cc1cc(C#N)cnc1N[C@H]1CC[C@@H](Oc2cc(N3CCOCC3)cc3nccnc23)CC1 [Compound 242]
7 | < 100 | N#Cc1ccc(N[C@H]2CC[C@@H](Oc3cc(N4CCOCC4)cc4nccnc34)CC2)nn1 [Compound 55]
8 | < 100 | Cc1nc(N[C@H]2CC[C@@H](Oc3cc(N4CCOCC4)cc4nccnc34)CC2)ccc1C#N [Compound 241]
9 | < 100 | Cc1cc(N[C@H]2CC[C@@H](Oc3cc(N4CCOCC4)cc4nccnc34)CC2)ncn1 [Compound 265]
10 | < 100 | O=C(O)c1ccnc(N[C@H]2CC[C@@H](Oc3cc(N4CCOCC4)cc4nccnc34)CC2)n1 [Compound 93]
11 | < 100 | Nc1cnc(N[C@H]2CC[C@@H](Oc3cc(N4CCOCC4)cc4nccnc34)CC2)nc1 [Compound 143]
12 | < 100 | Brc1cnc(N[C@H]2CC[C@@H](Oc3cc(N4CCOCC4)cc4nccnc34)CC2)nc1 [Compound 45]
13 | < 100 | O[C@H](c1cnc(N[C@H]2CC[C@@H](Oc3cc(N4CCOCC4)cc4nccnc34)CC2)nc1)C(F)(F)F [Compound 235]
14 | < 100 | c1cc(N[C@H]2CC[C@@H](Oc3cc(N4CCOCC4)cc4nccnc34)CC2)ccn1 [Compound 273]
15 | < 100 | COC(=O)c1cnc(N[C@H]2CC[C@@H](Nc3cc(N4CCOCC4)cc4nccnc34)CC2)cn1 [Compound 32]
16 | < 100 | CN(C)c1nc(N[C@H]2CC[C@@H](Oc3cc(N4CCOCC4)cc4nccnc34)CC2)ncc1F [Compound 269]
17 | < 100 | Oc1cnc(N[C@H]2CC[C@@H](Oc3cc(N4CCOCC4)cc4nccnc34)CC2)nc1 [Compound 158]
18 | < 100 | c1ccc(N[C@H]2CC[C@@H](Oc3cc(N4CCOCC4)cc4nccnc34)CC2)nc1 [Compound 254]
19 | < 100 | COC(=O)c1cc(C)nc(N[C@H]2CC[C@@H](Oc3cc(N4CCOCC4)cc4nccnc34)CC2)n1 [Compound 565]
20 | < 100 | Cc1ccnc(N[C@H]2CC[C@@H](Oc3cc(N4CCOCC4)cc4nccnc34)CC2)n1 [Compound 246]

Row | Ki [nM] | SMILES
21 | < 100 | CCOc1cc(N[C@H]2CC[C@@H](Oc3cc(N4CCOCC4)cc4nccnc34)CC2)ncn1 [Compound 215]
22 | < 100 | COc1cncc(N[C@H]2CC[C@@H](Oc3cc(N4CCOCC4)cc4nccnc34)CC2)n1 [Compound 54]
23 | < 100 | O=C(O)c1cnc(N[C@H]2CC[C@@H](Nc3cc(N4CCOCC4)cc4nccnc34)CC2)nc1 [Compound 29]
24 | < 100 | O=C(O)c1ccnc(N[C@H]2CC[C@@H](Oc3cc(N4CCOCC4)cc4nccnc34)CC2)c1 [Compound 210]
25 | < 100 | CN(C)C(=O)c1cnc(N[C@H]2CC[C@@H](Oc3cc(N4CCOCC4)cc4nccnc34)CC2)nc1 [Compound 72]
26 | < 100 | CCN(CC)c1cnc(N[C@H]2CC[C@@H](Oc3cc(N4CCOCC4)cc4nccnc34)CC2)nc1 [Compound 155]
27 | < 100 | COc1cc(N[C@H]2CC[C@@H](Oc3cc(N4CCOCC4)cc4nccnc34)CC2)ncn1 [Compound 194]
28 | < 100 | Cc1cnc2c(O[C@H]3CC[C@@H](Nc4ncccn4)CC3)cc(N3CCOCC3)cc2n1 [Compound 190]
29 | < 100 | c1cnc(N[C@H]2CC[C@@H](Oc3cc(N4C[C@H]5CC[C@@H](C4)O5)cc4nccnc34)CC2)nc1 [Compound 53]
30 | < 100 | N#Cc1ccnc(N[C@H]2CC[C@@H](Oc3cc(N4CCOCC4)cc4nccnc34)CC2)c1 [Compound 84]
31 | < 100 | c1cncc(N[C@H]2CC[C@@H](Oc3cc(N4CCOCC4)cc4nccnc34)CC2)c1 [Compound 272]
32 | < 100 | C1=C(c2cc(O[C@H]3CC[C@@H](Nc4ncccn4)CC3)c3nccnc3c2)CCOC1 [Compound 36, N-[(cis)-4-[7-(3,6-dihydro-2H-pyran-4-yl)quinoxalin-5-yl]oxycyclohexyl]pyrimidin-2-amine]
33 | < 100 | c1cnc(O[C@H]2CC[C@@H](Nc3cc(N4CCOCC4)cc4nccnc34)CC2)nc1 [Compound 46]
34 | < 100 | COC(=O)c1ccc(N[C@H]2CC[C@@H](Oc3cc(N4CCOCC4)cc4nccnc34)CC2)nc1 [Compound 146]
35 | < 100 | CN1CCN(c2ccc(C(=O)N[C@H]3CC[C@@H](Oc4cc(N5CCOCC5)cc5nccnc45)CC3)nc2)CC1 [Compound 198]
36 | < 100 | Clc1nc(N[C@H]2CC[C@@H](Oc3cc(N4CCOCC4)cc4nccnc34)CC2)nc(C2CC2)n1 [Compound 605]
37 | < 100 | Fc1cc(F)nc(N[C@H]2CC[C@@H](Oc3cc(N4CCOCC4)cc4nccnc34)CC2)n1 [Compound 104]
38 | < 100 | Cc1ccc(N[C@H]2CC[C@@H](Oc3cc(N4CCOCC4)cc4nccnc34)CC2)nc1 [Compound 256]
39 | < 100 | Cc1ccc(N[C@H]2CC[C@@H](Oc3cc(N4CCOCC4)cc4nccnc34)CC2)nn1 [Compound 450]
40 | < 100 | Fc1ccc(N[C@H]2CC[C@@H](Oc3cc(N4CCOCC4)cc4nccnc34)CC2)nn1 [Compound 60]

Row | Ki [nM] | SMILES
41 | < 100 | c1cnc(N[C@H]2CC[C@@H](Nc3cc(N4CCOCC4)cc4nccnc34)CC2)cn1 [Compound 27]
42 | < 100 | c1cnc(N[C@H]2CC[C@@H](Oc3cc(N4CCOCC4)cc4nccnc34)CC2)cn1 [Compound 33]
43 | < 100 | CC(C)c1cnc(N[C@H]2CC[C@@H](Oc3cc(N4CCOCC4)cc4nccnc34)CC2)nc1 [Compound 209]
44 | < 100 | O[C@@H](c1cnc(N[C@H]2CC[C@@H](Oc3cc(N4CCOCC4)cc4nccnc34)CC2)nc1)C(F)(F)F [Compound 236]
45 | < 100 | Brc1ccc(N[C@H]2CC[C@@H](Oc3cc(N4CCOCC4)cc4nccnc34)CC2)nc1 [Compound 164]
46 | < 100 | OCc1cnc(N[C@H]2CC[C@@H](Oc3cc(N4CCOCC4)cc4nccnc34)CC2)nc1 [Compound 94]
47 | < 100 | COCc1cnc(N[C@H]2CC[C@@H](Oc3cc(N4CCOCC4)cc4nccnc34)CC2)nc1 [Compound 161]
48 | < 100 | CCOc1ncc(F)c(N[C@H]2CC[C@@H](Oc3cc(N4CCOCC4)cc4nccnc34)CC2)n1 [Compound 607]
49 | < 100 | O=C(O)c1cnc(N[C@H]2CC[C@@H](Oc3cc(N4CCOCC4)cc4nccnc34)CC2)nc1 [Compound 69]
50 | < 100 | c1cnc(N[C@H]2CC[C@@H](Nc3cc(N4CCOCC4)cc4nccnc34)CC2)nc1 [Compound 18, N^1-(7-morpholinoquinoxalin-5-yl)-N^4-(pyrimidin-2-yl)cyclohexane-1,4-diamine]
51 | < 100 | CCc1cnc(N[C@H]2CC[C@@H](Oc3cc(N4CCOCC4)cc4nccnc34)CC2)nc1 [Compound 208]
52 | < 100 | N#Cc1cc(N[C@H]2CC[C@@H](Oc3cc(N4CCOCC4)cc4nccnc34)CC2)ncn1 [Compound 234]
53 | < 100 | CCOCCOc1cnc(N[C@H]2CC[C@@H](Oc3cc(N4CCOCC4)cc4nccnc34)CC2)nc1 [Compound 66]
54 | < 100 | CC(C)(CO)Nc1ccnc(N[C@H]2CC[C@@H](Oc3cc(N4CCOCC4)cc4nccnc34)CC2)n1 [Compound 264]
55 | < 100 | Fc1nccc(N[C@H]2CC[C@@H](Oc3cc(N4CCOCC4)cc4nccnc34)CC2)n1 [Compound 50]
56 | < 100 | N#Cc1cccc(N[C@H]2CC[C@@H](Oc3cc(N4CCOCC4)cc4nccnc34)CC2)n1 [Compound 195]
57 | < 100 | Cc1nc(N[C@H]2CC[C@@H](Oc3cc(N4CCOCC4)cc4nccnc34)CC2)cc(N2CCN(C)CC2)n1 [Compound 275]
58 | < 100 | Fc1cc(N[C@H]2CC[C@@H](Oc3cc(N4CCOCC4)cc4nccnc34)CC2)ncn1 [Compound 51]
